Data as given in patent publication US20180000085A1, “USE OF PICOLINAMIDE COMPOUNDS WITH FUNGICIDAL ACTIVITY” (DOW AGROSCIENCES LLC, priority 2014, published 2018).

Key:
Puccinia triticina = assay: Wheat brown rust (PUCCRT) disease control on wheat seedlings; type: in vivo; set-up: key to PUCCRT 3DC, HV activity at 100 ppm (% control rating) / PUCCRT disease control, 3DC / PUCCRT 1DP disease control rating, HV activity / PUCCRT 3DC disease control rating, HV activity / PUCCRT 3DC, LV activity at 125.1 g/H (% Control rating) / PUCCRT 1DP, LV activity at 125.1 g/H (% Control rating) / PUCCRT 3DC disease control rating, LV activity at 125.1 g/H / PUCCRT 1DP disease control rating, LV activity at 125.1 g/H / PUCCRT 3DC disease control rating, HV activity at 100 ppm / PUCCRT 1DP disease control rating, HV activity at 100 ppm / HV activity at 100 ppm PUCCRT 3DC (disease control rating) / LV activity at 125.1 g/H PUCCRT 1DP (disease control rating) / LV activity at 125.1 g/H PUCCRT 3DC (disease control rating): A: > 80; B: ≤ 80; C: Not Tested; D: No Activity Observed in the Reported Assay; conditions: for PUCCRT 1DP disease control rating, HV activity / PUCCRT 3DC disease control rating, HV activity: HV application at 100 ppm
Zymoseptoria tritici = assay: Leaf blotch of wheat (SEPTTR) disease control on wheat seedlings; type: in vivo; set-up: key to SEPTTR 1DP, HV activity at 100 ppm (% control rating) / SEPTTR 3DC, HV activity at 100 ppm (% control rating) / SEPTTR disease control, 1DP / SEPTTR disease control, 3DC / SEPTTR 1DP disease control rating, HV activity / SEPTTR 3DC disease control rating, HV activity / SEPTTR 3DC, LV activity at 125.1 g/H (% Control rating) / SEPTTR 1DP, LV activity at 125.1 g/H (% Control rating) / SEPTTR 1DP disease control rating, LV activity at 125.1 g/H / SEPTTR 3DC disease control rating, LV activity at 125.1 g/H / SEPTTR 3DC disease control rating, HV activity at 100 ppm / SEPTTR 1DP disease control rating, HV activity at 100 ppm / HV activity at 100 ppm SEPTTR 3DC (disease control rating) / HV activity at 100 ppm SEPTTR 1DP (disease control rating) / LV activity at 125.1 g/H SEPTTR 1DP (disease control rating) / LV activity at 125.1 g/H SEPTTR 3DC (disease control rating): A: > 80; B: ≤ 80; C: Not Tested; D: No Activity Observed in the Reported Assay; conditions: for SEPTTR 1DP disease control rating, HV activity / SEPTTR 3DC disease control rating, HV activity: HV application at 100 ppm
[1] = low volume application, 125.1 g/H, 1 day protectant
[2] = low volume application, 125.1 g/H, 3 day curative
[3] = 1 Day Protectant, wheat brown rust
[4] = 3 Day Curative, wheat brown rust
[5] = 1 Day Protectant, wheat leaf blotch
[6] = 3 Day Curative, wheat leaf blotch
[7] = HV activity at 100 ppm, 1 Day Protectant, wheat
[8] = HV activity at 100 ppm, 3 Day Curative, wheat
[9] = high volume application, 100 ppm, 1DP
[10] = high volume application, 100 ppm, 3DC
[11] = high volume application, 100 ppm, 1 day protectant
[12] = high volume application, 100 ppm, 3 day curative

Row | SMILES | PUCCRT 1DP disease control rating, LV activity at 125.1 g/H (Puccinia triticina; [1]) | PUCCRT 3DC disease control rating, LV activity at 125.1 g/H (Puccinia triticina; [2]) | SEPTTR 1DP disease control rating, LV activity at 125.1 g/H (Zymoseptoria tritici; [1]) | SEPTTR 3DC disease control rating, LV activity at 125.1 g/H (Zymoseptoria tritici; [2]) | PUCCRT 1DP disease control rating, HV activity (Puccinia triticina; [3]) | PUCCRT 3DC disease control rating, HV activity (Puccinia triticina; [4]) | SEPTTR 1DP disease control rating, HV activity (Zymoseptoria tritici; [5]) | SEPTTR 3DC disease control rating, HV activity (Zymoseptoria tritici; [6]) | further results
1 | CCC[C@@H](Oc1cccc(OC)c1)[C@H](C)OC(=O)[C@H](C)NC(=O)c1nccc(OC)c1OC(C)=O [Cmpd 1063] | – | – | – | – | – | – | – | – | LV activity at 125.1 g/H PUCCRT 1DP (disease control rating) (Puccinia triticina; low volume application, 125.1 g/H, 1 Day Protectant, wheat brown rust): A (> 80); LV activity at 125.1 g/H PUCCRT 3DC (disease control rating) (Puccinia triticina; low volume application, 125.1 g/H, 3 Day Curative, wheat brown rust): A (> 80); LV activity at 125.1 g/H SEPTTR 1DP (disease control rating) (Zymoseptoria tritici; low volume application, 125.1 g/H, 1 Day Protectant, wheat leaf blotch): B (≤ 80); LV activity at 125.1 g/H SEPTTR 3DC (disease control rating) (Zymoseptoria tritici; low volume application, 125.1 g/H, 3 Day Curative, wheat leaf blotch): A (> 80)
2 | COc1ccnc(C(=O)N[C@@H](C)C(=O)O[C@@H](C)[C@@H](Oc2cccc(C(F)(F)F)c2)C(C)C)c1OCOC(C)=O [Cmpd 853] | A (> 80) | A (> 80) | B (≤ 80) | A (> 80) | – | – | – | – | –
3 | CCCOC(CC)C(Oc1ccccc1)C(C)OC(=O)C(NC(=O)c1nccc(OC)c1OC(C)=O)C(C)CC (stereo not shown) [Cmpd 453] | – | – | – | – | A (> 80) | A (> 80) | B (≤ 80) | B (≤ 80) | –
4 | CC(=O)Oc1cccnc1C(=O)NC(C)C(=O)OC(C)C(Oc1ccccc1)C(C)C (stereo not shown) [Cmpd 678] | B (≤ 80) | D | A (> 80) | B (≤ 80) | – | – | – | – | –
5 | COc1ccnc(C(=O)N[C@@H](C)C(=O)O[C@@H](C)[C@@H](CC(C)C)Oc2ccc(C)cc2Cl)c1O [Cmpd 1051] | – | – | – | – | – | – | – | – | HV activity at 100 ppm PUCCRT 1DP (disease control rating) (Puccinia triticina; HV application, 100 ppm, 1 Day Protectant, wheat brown rust): A (> 80); HV activity at 100 ppm PUCCRT 3DC (disease control rating) (Puccinia triticina; HV application, 100 ppm, 3 Day Curative, wheat brown rust): B (≤ 80); HV activity at 100 ppm SEPTTR 1DP (disease control rating) (Zymoseptoria tritici; HV application, 100 ppm, 1 Day Protectant, wheat leaf blotch): B (≤ 80); HV activity at 100 ppm SEPTTR 3DC (disease control rating) (Zymoseptoria tritici; HV application, 100 ppm, 3 Day Curative, wheat leaf blotch): D
6 | CCC(CC)C(Oc1cc(F)cc(Cl)c1)C(C)OC(=O)C(C)NC(=O)c1nccc(OC)c1O (stereo not shown) [Cmpd 423] | – | – | – | – | A (> 80) | B (≤ 80) | A (> 80) | A (> 80) | –
7 | COc1ccnc(C(=O)NC(C)C(=O)OC(C)C(Oc2ccccc2)C2CCCCC2)c1OCOC(C)=O (stereo not shown) [Cmpd 907] | A (> 80) | B (≤ 80) | B (≤ 80) | B (≤ 80) | – | – | – | – | –
8 | CCCOC(CC)C(Oc1ccccc1)C(C)OC(=O)C(NC(=O)c1nccc(OC)c1O)C(C)C (stereo not shown) [Cmpd 290] | – | – | – | – | A (> 80) | B (≤ 80) | B (≤ 80) | B (≤ 80) | PUCCRT disease control, 1DP (Puccinia triticina; [7]): A (> 80); PUCCRT disease control, 3DC (Puccinia triticina; [8]): B (≤ 80); PUCCRT 1DP, HV activity at 100 ppm (% control rating) (Puccinia triticina; [9]): A (> 80); PUCCRT 3DC, HV activity at 100 ppm (% control rating) (Puccinia triticina; [10]): B (≤ 80); SEPTTR disease control, 1DP (Zymoseptoria tritici; [7]): B (≤ 80); SEPTTR disease control, 3DC (Zymoseptoria tritici; [8]): B (≤ 80); SEPTTR 1DP, HV activity at 100 ppm (% control rating) (Zymoseptoria tritici; [9]): B (≤ 80); SEPTTR 3DC, HV activity at 100 ppm (% control rating) (Zymoseptoria tritici; [10]): B (≤ 80)
9 | CCC(CC)C(Oc1ccccc1Cl)C(C)OC(=O)C(C)NC(=O)c1nccc(OC)c1O (stereo not shown) [Cmpd 384] | – | – | – | – | A (> 80) | A (> 80) | B (≤ 80) | A (> 80) | –
10 | COc1ccnc(C(=O)N[C@@H](C)C(=O)O[C@@H](C)[C@@H](OC)c2ccccc2)c1OC(C)=O [Cmpd 885] | D | A (> 80) | D | B (≤ 80) | – | – | – | – | –
11 | COc1ccnc(C(=O)NC(C)C(=O)OC(C)C(Oc2ccccc2)c2nccs2)c1O (mixture of isomers) [Cmpd 808] | – | – | – | – | – | – | – | – | PUCCRT 1DP disease control rating, HV activity at 100 ppm (Puccinia triticina; [11]): A (> 80); PUCCRT 3DC disease control rating, HV activity at 100 ppm (Puccinia triticina; [12]): B (≤ 80); SEPTTR 1DP disease control rating, HV activity at 100 ppm (Zymoseptoria tritici; [11]): B (≤ 80); SEPTTR 3DC disease control rating, HV activity at 100 ppm (Zymoseptoria tritici; [12]): D
